Measured values taken from publication PMC9019904, “AD Informer Set: Chemical tools to facilitate Alzheimer's disease drug discovery” (Alzheimer's & Dementia : Translational Research & Clinical …, 2022).

Columns and labels:
[1] = system: BV2 (mouse microglia) cell line; experiment: pHrodo-myelin phagocytosis/cell viability high content imaging assay: phagocytosis signal; format: cell-based
Experimental: (§1) It is important to note that stressed cells, such as those that are dying, are prone to show an increase in phagocytosis. […] MerTK promotes phagocytosis and thus MerTK inhibition is proposed to lead to inhibition of phagocytosis.[47]
(§2) phagocytosis and cell viability simultaneously. High content imaging is performed with the
(§3) (approximately 22 hours after pHrodo-myelin addition). Three measurements are extracted
(§4) intensity increase (early apoptosis) and decrease (later apoptosis), respectively. These
and 3). […]

[2] = system: HMC3 (human microglia) cell line; experiment: as above; format: cell-based
Experimental: as §1, §2, §3, §4
and 3). […]

[3] = system: BV2 (mouse microglia) cell line; experiment: pHrodo-myelin phagocytosis/cell viability high content imaging assay: viability (cell count, nuclear area, nuclear intensity); conditions: 48 hours treatment
Experimental: (§5) All AD Informer Set compounds were tested in two immortalized microglial cell lines, murine (BV2), and human (HMC3), in a high‐content imaging assay in duplicate by the Chu lab. Experimental details and all data can be found as supporting information files.
(§6) The role of microglia in AD has been well documented and was thus chosen as a cell type in which to profile the AD Informer Set.[43], [44], [45] As an example, neuroinflammation, as detected by the presence of activated complement proteins, interleukins, cytokines, and chemokines in microglia and astrocytes, is increased early in AD and is considered pathogenic due to its chronic nature.[33], [34] Cytotoxic effects can be assessed by considering multiple parameters.
(§7) Microglial viability and phagocytosis studies: The pHrodo-myelin phagocytosis/cell viability assay, modified based on a published method, was run with immortalized BV2 (mouse microglia) and HMC3 (human microglia) cell lines in the Chu lab at IUSM. The 384-well plate high content analysis assay with BV2 and HMC3 microglial cell lines is used to quantify both phagocytosis and cell viability simultaneously. High content imaging is performed with the ArrayScan automatic imaging system and imaging analysis done with the software on the system. After allowing cells to adhere overnight, they are treated with compounds for total 48 hours including final 20 hours seeded with pHrodo-myelin (labeled phagocytosis ligand, purified […]
(§8) (approximately 22 hours after pHrodo-myelin addition). Three measurements are extracted from the assay: 1) phagocytosis signal by mean total phagocytosis spot intensity per cell, 2) total cell counts per well as the main measurement of cell viability, and 3) mean average nuclear intensity per cell as profiling of cell health since apoptotic cells showing nuclear intensity increase (early apoptosis) and decrease (later apoptosis), respectively. These measurements allow for evaluation of compound-induced phagocytosis (1) and cytotoxicity (2 and 3). Assays were carried out at a single concentration (10 μM). Idelalisib (10 μM) and cytochalasin-D (4 μM) were used as positive controls in the assay. All data, which was an average of 2 data points, was normalized to untreated wells and reported as % control, which is included in the Supporting Information both as a raw data file and summarized in the compound/gene-annotation file.

[4] = system: HMC3 (human microglia) cell line; experiment: as above; conditions: 48 hours treatment
Experimental: as §5, §6, §7, §8

[5] = BV2, compound 10 uM, pHrodo-myelin
[6] = HMC3, compound 10 uM, pHrodo-myelin
[7] = BV2 cells, 10 uM compound, 48 hours treatment, pHrodo-myelin final 20 hours
[8] = HMC3 cells, 10 uM compound, 48 hours treatment, pHrodo-myelin final 20 hours

`CC(C)(C)c1cc(NC(=O)Nc2ccc(-c3cn4c(n3)sc3cc(OCCN5CCOCC5)ccc34)cc2)no1` [UNC10220373A] was tested, and the “4. Phagocytosis (% control)” value [1, 5] was 143.1 % control, the “4. Phagocytosis (% control)” value [2, 6] was 81.7 % control and the “1. Cell count (% control)” value ([3]; BV2, compound 10 uM) was 110.4 % control. The “2. Nuclear Area (% Control)” value ([3]; BV2, compound 10 uM) was 100.2 % Control, the “3. Nuclear DNA Intensity (% control)” value ([3]; BV2, compound 10 uM) was 106.6 % control and the “1. Cell count (% control)” value ([4]; HMC3, compound 10 uM) was 110.3 % control. The “2. Nuclear Area (% Control)” value ([4]; HMC3, compound 10 uM) was 101.4 % Control and the “3. Nuclear DNA Intensity (% control)” value ([4]; HMC3, compound 10 uM) was 94.2 % control.

In the case of `CN(C)CC#Cc1ccc(OCCCc2sc(N3CCc4cccc(C(=O)Nc5nc6ccccc6s5)c4C3)nc2C(=O)O)c(F)c1` [UNC10302697A], the “4. Phagocytosis (% control)” value [1, 5] is reported as 206.2 % control, the “4. Phagocytosis (% control)” value [2, 6] is reported as 54.1 % control and the “1. Cell count (% control)” value ([3]; BV2, compound 10 uM) is reported as 84.3 % control. For the same compound, the “2. Nuclear Area (% Control)” value ([3]; BV2, compound 10 uM) was 106.7 % Control, the “3. Nuclear DNA Intensity (% control)” value ([3]; BV2, compound 10 uM) was 111.2 % control and the “1. Cell count (% control)” value ([4]; HMC3, compound 10 uM) was 92.7 % control. For the same compound, the “2. Nuclear Area (% Control)” value ([4]; HMC3, compound 10 uM) was 89.5 % Control and the “3. Nuclear DNA Intensity (% control)” value ([4]; HMC3, compound 10 uM) was 121.7 % control.

For `O=C(CCl)c1ccccc1Nc1cccc(C(F)(F)F)c1` [UNC10302842A], the “4. Phagocytosis (% control)” value [1, 5] was 183.6 % control, the “4. Phagocytosis (% control)” value [2, 6] was 56.6 % control and the “1. Cell count (% control)” value ([3]; BV2, compound 10 uM) was 92.3 % control. For the same compound, the “2. Nuclear Area (% Control)” value ([3]; BV2, compound 10 uM) was 108.5 % Control, the “3. Nuclear DNA Intensity (% control)” value ([3]; BV2, compound 10 uM) was 96.7 % control and the “1. Cell count (% control)” value ([4]; HMC3, compound 10 uM) was 87.6 % control. For the same compound, the “2. Nuclear Area (% Control)” value ([4]; HMC3, compound 10 uM) was 81.7 % Control and the “3. Nuclear DNA Intensity (% control)” value ([4]; HMC3, compound 10 uM) was 149.6 % control.

`Cc1cc(Nc2ncc(Cl)c(Nc3ccccc3S(=O)(=O)C(C)C)n2)c(OC(C)C)cc1C1CCNCC1` [UNC10244729A] was tested, and the “4. Phagocytosis (% control)” value [1, 7] was 0.00122 % control, the “4. Phagocytosis (% control)” value [2, 8] was 0.00248 % control and the “1. Cell count (% control)” value ([3]; BV2 cells, 10 uM compound) was 19.2 % control. For the same compound, the “2. Nuclear Area (% Control)” value ([3]; BV2 cells, 10 uM compound) was 92.5 % Control, the “3. Nuclear DNA Intensity (% control)” value ([3]; BV2 cells, 10 uM compound) was 49.1 % control and the “1. Cell count (% control)” value ([4]; HMC3 cells, 10 uM compound) was 28.7 % control. The “2. Nuclear Area (% Control)” value ([4]; HMC3 cells, 10 uM compound) was 60.3 % Control and the “3. Nuclear DNA Intensity (% control)” value ([4]; HMC3 cells, 10 uM compound) was 155.5 % control.

For `COCC(=O)O[C@]1(CCN(C)CCCc2nc3ccccc3[nH]2)CCc2cc(F)ccc2[C@@H]1C(C)C.Cl.Cl` [UNC10303193A], the “4. Phagocytosis (% control)” value [1, 5] was 0.0 % control, the “4. Phagocytosis (% control)” value [2, 6] was 9.6 % control and the “1. Cell count (% control)” value ([3]; BV2, compound 10 uM) was 0.0 % control. For the same compound, the “2. Nuclear Area (% Control)” value ([3]; BV2, compound 10 uM) was 78.1 % Control, the “3. Nuclear DNA Intensity (% control)” value ([3]; BV2, compound 10 uM) was 3.8 % control and the “1. Cell count (% control)” value ([4]; HMC3, compound 10 uM) was 77.7 % control. For the same compound, the “2. Nuclear Area (% Control)” value ([4]; HMC3, compound 10 uM) was 77.5 % Control and the “3. Nuclear DNA Intensity (% control)” value ([4]; HMC3, compound 10 uM) was 143.7 % control.

`CN1C(N)=N[C@](C)(c2cc(NC(=O)c3ccc(F)cn3)ccc2F)CS1(=O)=O` [UNC10303092A] was tested, and the “4. Phagocytosis (% control)” value [1, 7] was 127.2 % control, the “4. Phagocytosis (% control)” value [2, 8] was 104.7 % control and the “1. Cell count (% control)” value ([3]; BV2 cells, 10 uM compound) was 104.0 % control. For the same compound, the “2. Nuclear Area (% Control)” value ([3]; BV2 cells, 10 uM compound) was 108.1 % Control, the “3. Nuclear DNA Intensity (% control)” value ([3]; BV2 cells, 10 uM compound) was 102.5 % control and the “1. Cell count (% control)” value ([4]; HMC3 cells, 10 uM compound) was 119.4 % control. The “2. Nuclear Area (% Control)” value ([4]; HMC3 cells, 10 uM compound) was 99.5 % Control and the “3. Nuclear DNA Intensity (% control)” value ([4]; HMC3 cells, 10 uM compound) was 97.7 % control.

For `CN1CCN(CCCN2c3ccccc3Sc3ccc(C(F)(F)F)cc32)CC1.Cl.Cl` [UNC10101287D], the “4. Phagocytosis (% control)” value [1, 5] was 137.1 % control, the “4. Phagocytosis (% control)” value [2, 6] was 45.4 % control and the “1. Cell count (% control)” value ([3]; BV2, compound 10 uM) was 26.5 % control. The “2. Nuclear Area (% Control)” value ([3]; BV2, compound 10 uM) was 111.5 % Control, the “3. Nuclear DNA Intensity (% control)” value ([3]; BV2, compound 10 uM) was 99.8 % control and the “1. Cell count (% control)” value ([4]; HMC3, compound 10 uM) was 79.4 % control. For the same compound, the “2. Nuclear Area (% Control)” value ([4]; HMC3, compound 10 uM) was 102.6 % Control and the “3. Nuclear DNA Intensity (% control)” value ([4]; HMC3, compound 10 uM) was 95.6 % control.
